Results taken from patent US9783546B2, “Compounds” (GlaxoSmithKline Intellectual Property Development Limited, priority 2014, dated 2017).

Legend:
[1] = tested on: experimental autoimmune encephalomyelitis (EAE) rats; experiment: Rat experimental autoimmune encephalomyelitis (EAE) model, preventive treatment; format: in vivo; settings: rats immunized with MBP
Procedure: A further study was carried out to study the impact of Lp-PLA2 inhibitors on modulating M1/M2 imbalance. In this study, rats were induced to develop experimental autoimmune encephalomyelitis (EAE) by immunization with myelin basic protein (MBP) antigen and treated with a known Lp-PLA2 inhibitor: 5-(9-Methoxy-4-oxo-6,7-dihydro-4H-pyrimido[6,1-a]isoquinolin-2-yl)oxy)-2-(3-(trifluoromethyl)phenoxy)benzonitrile (See PCT application no. PCT/CN2011/001597). In this preventive treatment model, the compound was administered at day 0 (day of immunization) and continued to administer until day 22. The study lasted for 25 days. Rats were subsequently monitored for symptoms of EAE. Rats were immunized with MBP to develop EAE and symptoms were monitored daily. Plasma Lp-PLA2 activity, OxLDL, and LysoPC concentration were determined at different time points through the course of EAE.

[2] = tested on: proinflammatory (M1) and anti-inflammatory (M2) markers in macrophages; experiment: Ex vivo analysis of M1 and M2 markers in macrophages of EAE rats by realtime PCR; parameters: species or system rat; settings: splenic macrophages at day 13 post MBP-immunization and CNS infiltrating macrophages
Procedure: Ex vivo analysis of proinflammatory (M1) and anti-inflammatory (M2) markers in control and compound treated EAE rats. Splenic macrophages were harvested at day 13 post MBP-immunization and assayed for expression of a variety of markers by realtime PCR. CNS infiltrating cells were harvested and macrophages were analyzed for expression of M1 and M2 markers by realtime PCR.

[3] = target: T1, Lp-PLA2 in human plasma (Homo sapiens, UniProt Q13093); experiment: Lp-PLA2 Human Plasma assay, Thio-PAF assay; format: biochemical; settings: pooled human plasma, 2-thio-PAF substrate; read-out: pIC50 value in the Lp-PLA2 human plasma assays (converted)
T1 construct: from tissue; host or cells: pooled human plasma
T1 sequence (Q13093 22-441): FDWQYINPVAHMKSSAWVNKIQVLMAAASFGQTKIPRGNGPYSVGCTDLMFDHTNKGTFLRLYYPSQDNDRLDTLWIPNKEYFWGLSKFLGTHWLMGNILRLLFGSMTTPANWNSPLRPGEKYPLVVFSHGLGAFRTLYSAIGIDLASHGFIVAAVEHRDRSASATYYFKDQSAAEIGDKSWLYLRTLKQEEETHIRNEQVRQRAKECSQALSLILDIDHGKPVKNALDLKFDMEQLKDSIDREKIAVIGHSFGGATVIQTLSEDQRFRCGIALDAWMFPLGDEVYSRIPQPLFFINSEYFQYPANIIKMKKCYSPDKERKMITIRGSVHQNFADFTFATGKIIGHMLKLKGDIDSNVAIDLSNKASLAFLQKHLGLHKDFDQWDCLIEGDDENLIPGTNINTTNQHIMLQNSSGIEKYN
Description: (3) Lipoprotein-associated phospholipase A2 (Lp-PLA2) Human Plasma assay-Thio-PAF assay
The human plasma assay utilizes a thioester analog of PAF (phosphatidylcholine), where hydrolysis yields to the formation of a phospholipid containing a free thiol group. The amount of thiol is quantitated continuously by reacting with CPM (7-diethylamino-3-(4′-maleimidylphenyl)-4-methylcoumarin), a maleimide which increases in fluoresence after Michael addition of thiols. This assay may detect the activity of Lp-PLA2 in human plasma, as determined by specific inhibition by Lp-PLA2 inhibitors.
The thio-PAF assay was run as a quenched 15 μL assay. Compounds source plate was prepared by making 1:3 (by volume) serial dilution of the compounds into pure DMSO on 384-well microplate. […] of compounds on compound source plate were transferred to 384 well Greiner 784076 (black) low-volume plates by ECHO liquid dispenser. 8 μL pooled human plasma, which was previously aliquoted and frozen, was added. Plates were centrifuged for 10 sec at 500 rpm. […] Plates were read at ex: 380/em: 485 using Envision microplate reader. […]

[4] = target: T2, recombinant human Lp-PLA2 (Homo sapiens, UniProt Q13093); experiment: Recombinant human Lp-PLA2 assay (rhLp-PLA2), PED6 assay; format: biochemical; settings: PED6 substrate, 30 minutes preincubation; read-out: rhLp-PLA2 (pIC50) (converted)
T2 sequence (Q13093 22-441): T1 sequence (Q13093 22-441)
Description: (1) Recombinant human Lp-PLA2 assays (rhLp-PLA2)-PED6 assay
N-((6-(2,4-dinitrophenyl)amino)-hexanoyl)-2-(4,4-difluoro-5,7-dimethyl-4-bora-3a,4a-diaza-s-indacene-3-pentanoyl)-1-hexadecanoyl-sn-glycero-3-phosphoethanolamine, triethylammonium salt (PED6) is a commercially available fluorescently-labeled phospholipid, which is commercially available from Invitrogene and Molecular Probes. There is a quenching para-nitro phenyl (PNP) group in the sn3 position and a Bodipy fluorescein (FL) group in the sn2 position. Upon cleavage with Lp-PLA2, the Bodipy FL group is liberated and then may result in an increase in fluorescence. Inhibitors of Lp-PLA2 therefore prevent this cleavage and no fluorescent increase is observed.
The PED6 assay was run as an unquenched 10 μL assay. The source plate containing the compounds to be tested was prepared by making 1:3 (by volume) serial dilution of the compounds within DMSO on 384-well microplate. Then, 0.01 μL of the compounds on compound source plate were transferred into 384 well Greiner 784076 (black) plates using ECHO liquid dispenser. […] The plates were read for fluorescence intensity at ex: 480/em: 540 using ViewLux microplate imager for Envision spectrofluroimeters. pIC50 data, curve and QC analysis was conducted by using XL fit module in Excel. […]

[5] = compound administered day 0 until day 22, plasma

With COc1ccc2c(c1)CCn1c-2cc(Oc2ccc(Oc3cccc(C(F)(F)F)c3)c(C#N)c2)nc1=O [5-(9-Methoxy-4-oxo-6,7-dihydro-4H-pyrimido[6,1-a]isoquinolin-2-yl)oxy)-2-(3-(trifluoromethyl)phenoxy)benzonitrile] the “clinical disease (EAE)” value ([1]; compound administered day 0 until day 22) was “reduction in clinical disease”, the “Lp-PLA2 activity in rat EAE plasma” value [1, 5] was “decreased Lp-PLA2 activity” and the “LysoPC levels in rat EAE plasma” value [1, 5] was “decreased”. For the same molecule, the M1 markers expression [2] was “decrease in M1 markers” and the M2 markers expression [2] was “increase in M2 markers”.
Molecule O=c1nc(OCc2cc(F)c(Oc3ccnc(C(F)(F)F)c3)c(F)c2)cc2n1C[C@H]1CCCN21 [Example 1, (R)-3-((3,5-difluoro-4-((2-(trifluoromethyl)pyridin-4-yl)oxy)benzyl)oxy)-7,8,8a, 9-tetra hydropyrrolo[1′,2′;3,4]imidazo[1,2-c]pyrimidin-1(6H)-one] has an IC50 [3] of 7.94 nM and an IC50 [4] of 0.158 nM.
In the case of O=c1nc(OCc2cc(F)c(Oc3ccnc(C(F)(F)F)c3)c(F)c2)cc2n1C[C@@H]1CCCN21 [Example 2, (S)-3-((3,5-difluoro-4-((2-(trifluoromethyl)pyridin-4-yl)oxy)benzyl)oxy)-7,8,8a, 9-tetra hydropyrrolo[1′,2′:3,4]imidazo[1,2-c]pyrimidin-1(6H)-one], the IC50 [3] is reported as 20 nM and the IC50 [4] is reported as 0.316 nM.
